# Test results: ChEMBL document CHEMBL1201862, “PubChem BioAssay data set” (2004)
# The source made the active and inactive calls.
# Experiments:
# Bcl-2-like protein 10 = target: T1, Bcl-2-like protein 10 (Homo sapiens, UniProt Q9HD36); test: displacers of TR3 peptide from Bcl-B, primary screen, selectivity assay for Bfl-1 inhibitor project, biochemical, fluorescence polarization, FITC-TR3 peptide (AID 748);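 also: fluorescence polarization from a fluorescein-labelled TR3 peptide binding purified Bcl-B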
# T1 sequence (Q9HD36 whole entry): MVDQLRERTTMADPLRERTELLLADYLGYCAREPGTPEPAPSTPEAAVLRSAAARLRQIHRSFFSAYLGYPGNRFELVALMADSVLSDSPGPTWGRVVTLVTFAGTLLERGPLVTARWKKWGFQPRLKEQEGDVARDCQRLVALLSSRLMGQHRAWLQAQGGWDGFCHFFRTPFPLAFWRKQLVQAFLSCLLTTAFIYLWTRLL
# [1] = target: T2, Alkaline phosphatase, tissue-nonspecific isozyme (Homo sapiens, UniProt P05186)
# T2 sequence (P05186 whole entry): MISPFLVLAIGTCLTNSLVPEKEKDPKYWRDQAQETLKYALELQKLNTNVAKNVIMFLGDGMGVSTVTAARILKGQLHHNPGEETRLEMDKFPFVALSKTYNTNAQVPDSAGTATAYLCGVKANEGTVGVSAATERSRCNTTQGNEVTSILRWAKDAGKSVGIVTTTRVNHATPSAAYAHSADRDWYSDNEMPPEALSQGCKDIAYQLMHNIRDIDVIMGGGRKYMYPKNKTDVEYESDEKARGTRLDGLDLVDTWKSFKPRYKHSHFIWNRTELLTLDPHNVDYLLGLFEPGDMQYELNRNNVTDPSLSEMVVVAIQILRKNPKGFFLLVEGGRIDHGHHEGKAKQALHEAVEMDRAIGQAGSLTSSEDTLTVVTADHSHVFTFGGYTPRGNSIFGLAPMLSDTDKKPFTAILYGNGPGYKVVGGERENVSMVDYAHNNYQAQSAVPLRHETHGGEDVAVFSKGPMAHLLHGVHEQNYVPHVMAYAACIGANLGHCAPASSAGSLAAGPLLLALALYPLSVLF
# [2] = target: T3, Eukaryotic translation initiation factor 2-alpha kinase 3 (Homo sapiens, UniProt Q9NZJ5); test: Dose response cell-based high-throughput screening assay to measure PERK inhibition. [Related pubchem assays: 1416 ]; format: functional
# T3 sequence (Q9NZJ5 whole entry): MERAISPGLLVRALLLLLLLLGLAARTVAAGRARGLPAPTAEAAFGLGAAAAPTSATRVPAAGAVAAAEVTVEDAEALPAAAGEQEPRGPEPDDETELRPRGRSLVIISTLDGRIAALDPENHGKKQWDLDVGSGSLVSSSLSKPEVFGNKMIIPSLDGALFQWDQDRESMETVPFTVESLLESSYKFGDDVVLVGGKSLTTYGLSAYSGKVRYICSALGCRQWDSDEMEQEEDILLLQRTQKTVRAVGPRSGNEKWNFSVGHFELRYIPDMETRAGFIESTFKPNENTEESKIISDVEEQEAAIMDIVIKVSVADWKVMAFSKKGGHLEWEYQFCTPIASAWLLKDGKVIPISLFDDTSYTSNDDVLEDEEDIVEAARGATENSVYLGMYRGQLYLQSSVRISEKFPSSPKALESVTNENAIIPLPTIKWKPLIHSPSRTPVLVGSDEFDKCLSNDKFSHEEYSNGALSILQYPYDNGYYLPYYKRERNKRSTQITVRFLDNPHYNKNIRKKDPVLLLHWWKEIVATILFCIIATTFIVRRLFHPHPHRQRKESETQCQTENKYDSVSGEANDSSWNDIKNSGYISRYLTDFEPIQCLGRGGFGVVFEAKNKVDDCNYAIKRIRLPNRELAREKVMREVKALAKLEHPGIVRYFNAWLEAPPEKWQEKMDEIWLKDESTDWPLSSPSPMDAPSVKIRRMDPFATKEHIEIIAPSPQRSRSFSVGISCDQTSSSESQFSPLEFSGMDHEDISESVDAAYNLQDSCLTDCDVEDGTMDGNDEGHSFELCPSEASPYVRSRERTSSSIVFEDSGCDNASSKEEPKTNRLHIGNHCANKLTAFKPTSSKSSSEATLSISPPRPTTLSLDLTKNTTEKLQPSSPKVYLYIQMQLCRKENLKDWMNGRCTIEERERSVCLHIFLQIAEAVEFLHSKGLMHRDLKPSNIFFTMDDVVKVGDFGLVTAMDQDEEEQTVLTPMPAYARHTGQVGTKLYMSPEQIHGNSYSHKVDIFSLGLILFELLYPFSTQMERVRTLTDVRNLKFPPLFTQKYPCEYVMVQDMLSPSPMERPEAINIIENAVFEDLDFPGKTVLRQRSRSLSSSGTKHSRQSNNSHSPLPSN
# [3] = target: T3, Eukaryotic translation initiation factor 2-alpha kinase 3; test: Counterscreen assay for PERK inhibitors: Dose response cell-based high throughput screening assay to measure inhibition of PERK at 6 hours. [Related pubchem assays: 1522, 1416 ]; format: functional
# [4] = target: T4, Polyadenylate-binding protein 1 (Homo sapiens, UniProt P11940); test: PABP inhibition in translation initiation, SAR follow-up (AID 435018); format: functional
# [5] = target: T4, Polyadenylate-binding protein 1; test: PABP poly(A) RNA binding inhibitors, primary screen, biochemical, fluorescence polarization, uHTS (AID 2014)
# [6] = target: T5, Eukaryotic translation initiation factor 4H (Homo sapiens, UniProt Q15056); test: human eIF4H binding inhibitors, primary screen, translation initiation inhibitor project, biochemical, uHTS, fluorescence polarization (AID 2012)
# [7] = target: T5, Eukaryotic translation initiation factor 4H; test: eIF4H inhibition in translation initiation, SAR follow-up (AID 435011); format: functional
# [8] = target: T6, RNA-binding protein pos-1 (Caenorhabditis elegans, UniProt G5EF15); test: inhibitors of POS-1/mex-3 RNA binding, dose response, biochemical, fluorescence polarization (AID 1964);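 also: purified POS-1 fused to maltose binding protein made in E. coli; potency of compounds blocking POS-1 binding to fluorescent RNA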
# T6 sequence (G5EF15 whole entry): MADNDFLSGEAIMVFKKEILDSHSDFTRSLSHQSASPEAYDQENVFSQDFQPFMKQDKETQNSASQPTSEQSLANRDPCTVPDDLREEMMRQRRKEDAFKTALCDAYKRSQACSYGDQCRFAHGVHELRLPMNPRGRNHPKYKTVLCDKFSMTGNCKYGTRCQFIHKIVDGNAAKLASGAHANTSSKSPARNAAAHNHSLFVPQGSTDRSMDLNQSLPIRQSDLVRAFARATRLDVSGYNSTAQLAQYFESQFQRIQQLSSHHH
# [9] = growth suppression of PTEN-null colon cells, dose response, cell-based, HCT116 PTEN knockout (AID 1047); format: functional;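 also: HCT116 colon tumor cells with PTEN knocked out; cells exposed to compound for 60 hours before readout; potency for loss of cell viability measured by luminescence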
# [10] = inhibitors of firefly luciferase expression or activity, dose response, H4 neuroglioma cells, luminescence (AID 1990); format: functional, cell-based
# [11] = test system: Streptococcus sp. 'group A'; test: growth inhibition of control SK(-) GAS strain, dose response, counter-screen for streptokinase expression inhibitor project, luminescence, kanamycin, BacTiterGlo, confirmation (AID 1900); format: functional, organism-based
# [12] = growth suppression of beta-catenin-knockout colon cells, dose response, cell-based, HCT116, human colon tumor (AID 1045); format: functional;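 also: HCT116 colon tumor cells with beta catenin knocked out; cells exposed to compound for 60 hours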
# [13] = target: T7, Heat shock factor protein 1 (Mus musculus, UniProt P38532); test: inhibition of MG132-induced HSE-luciferase signal, confirmation, cell-based, NIH3T3, luminescence, dose retest (AID 2382); format: functional;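 also: NIH3T3 fibroblasts with HSF1-driven luciferase reporter stressed by proteasome inhibitor MG132; luminescence from HSF1-driven luciferase expression after 8 hours of MG132 stress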
# T7 sequence (P38532 whole entry): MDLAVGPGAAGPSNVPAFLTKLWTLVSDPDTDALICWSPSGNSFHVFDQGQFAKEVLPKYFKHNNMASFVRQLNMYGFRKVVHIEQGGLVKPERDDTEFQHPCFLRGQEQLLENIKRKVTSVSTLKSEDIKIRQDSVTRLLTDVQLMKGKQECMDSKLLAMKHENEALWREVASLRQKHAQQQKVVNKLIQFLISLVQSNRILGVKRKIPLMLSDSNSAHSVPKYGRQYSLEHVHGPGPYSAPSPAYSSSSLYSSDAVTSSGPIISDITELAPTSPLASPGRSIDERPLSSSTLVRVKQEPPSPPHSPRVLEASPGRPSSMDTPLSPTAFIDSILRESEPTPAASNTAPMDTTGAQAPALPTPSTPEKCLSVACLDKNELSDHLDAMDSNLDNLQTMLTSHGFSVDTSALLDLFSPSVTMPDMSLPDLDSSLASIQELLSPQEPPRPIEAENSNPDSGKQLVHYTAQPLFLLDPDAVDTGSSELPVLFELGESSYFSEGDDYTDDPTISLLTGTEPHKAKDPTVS
# [14] = Luminescence Cell-Based Dose Response HTS to Identify Inhibitors of 5'UTR Stem-Loop Driven Prion Protein mRNA Translation in H4 Neuroglioblastoma Cells. [Related pubchem assays: 1827 (Project Summary), 1813 (Primary HTS)]; format: functional
# Streptococcus = test: Group A Streptococcus viability loss, dose response, counter-screen for streptokinase expression inhibitor project, luminescence, BacTiterGlo (AID 1915); format: functional, organism-based;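 also: potency for reduction of bacterial viability or growth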
# [15] = target: Neurotensin receptor type 1 (Homo sapiens, UniProt P30989); format: functional;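 also: Image-based confirmatory dose-response assay measuring agonist activity at NTR1; NTR1-expressing U2OS osteosarcoma cells imaged for beta-arrestin GFP spot formation; agonist potency where compounds increase beta-arrestin recruitment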
# Melanocortin receptor 4 = Melanocortin receptor 4 (Homo sapiens, UniProt P32245); format: functional, cell-based;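 also: Cell-based assay with luminescence read-out, confirmatory dose-response testing for agonist activity of biased ligands at MC4R; human U2OS cells with tagged receptor and beta-arrestin; potency of agonists that increase receptor coupling to beta-arrestin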
# Streptokinase A = target: T8, Streptokinase A (Streptococcus pyogenes serotype M1, UniProt P10520); test: S. pyogenes streptokinase expression inhibitors, potency, dose response, plasminogen activation absorbance, OD405 (AID 1914); format: functional, Streptococcus pyogenes M1 GAS;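 also: secreted streptokinase activity via plasminogen activation per viability signal from cell pellet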
# T8 sequence (P10520 whole entry): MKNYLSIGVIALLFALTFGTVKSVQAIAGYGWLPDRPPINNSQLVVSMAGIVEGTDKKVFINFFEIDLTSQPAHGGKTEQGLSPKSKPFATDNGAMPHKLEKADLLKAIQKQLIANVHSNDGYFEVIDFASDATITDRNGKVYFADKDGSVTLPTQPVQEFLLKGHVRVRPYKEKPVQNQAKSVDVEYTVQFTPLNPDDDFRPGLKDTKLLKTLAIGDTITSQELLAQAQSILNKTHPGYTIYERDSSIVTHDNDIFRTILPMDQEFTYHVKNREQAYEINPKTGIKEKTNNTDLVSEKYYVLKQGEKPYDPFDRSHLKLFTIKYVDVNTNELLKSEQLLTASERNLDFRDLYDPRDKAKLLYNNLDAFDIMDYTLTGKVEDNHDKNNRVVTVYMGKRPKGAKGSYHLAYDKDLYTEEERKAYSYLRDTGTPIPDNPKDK
# [16] = inhibitors of SNCA 5'UTR-driven reporter translation, confirmation, H4 neuroglioma cells, luminescence (AID 1988); format: functional, cell-based
# [17] = cytotoxicity in HEK-293T cells, dose response, cytotoxicity control for TCR NF-kB inhibitor project, luminescence, T-cell screen hits (AID 489026); format: functional, cell-based;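 also: cells exposed to compound about 14 hours before the viability readout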
# [18] = microbe, parasite or virus in culture; format: functional; conditions: Mycobacterium tuberculosis
# INS1 = test: beta cell apoptosis inhibitors, cytokine rescue, dose response, luminescence, retest (AID 449756); format: functional, cell-based; conditions: Rattus norvegicus;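 also: cell death triggered by IL-1 beta plus TNF-alpha plus IFN-gamma mixture; protective hits raise ATP signal compared with cytokine alone wells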
# Hexokinase HKDC1 = target: T9, Hexokinase HKDC1 (Homo sapiens, UniProt Q2TB90); test: HKDC1 hexokinase inhibitors, dose response, biochemical, W721R variant (AID 504729); format: functional
# T9 sequence (Q2TB90 whole entry): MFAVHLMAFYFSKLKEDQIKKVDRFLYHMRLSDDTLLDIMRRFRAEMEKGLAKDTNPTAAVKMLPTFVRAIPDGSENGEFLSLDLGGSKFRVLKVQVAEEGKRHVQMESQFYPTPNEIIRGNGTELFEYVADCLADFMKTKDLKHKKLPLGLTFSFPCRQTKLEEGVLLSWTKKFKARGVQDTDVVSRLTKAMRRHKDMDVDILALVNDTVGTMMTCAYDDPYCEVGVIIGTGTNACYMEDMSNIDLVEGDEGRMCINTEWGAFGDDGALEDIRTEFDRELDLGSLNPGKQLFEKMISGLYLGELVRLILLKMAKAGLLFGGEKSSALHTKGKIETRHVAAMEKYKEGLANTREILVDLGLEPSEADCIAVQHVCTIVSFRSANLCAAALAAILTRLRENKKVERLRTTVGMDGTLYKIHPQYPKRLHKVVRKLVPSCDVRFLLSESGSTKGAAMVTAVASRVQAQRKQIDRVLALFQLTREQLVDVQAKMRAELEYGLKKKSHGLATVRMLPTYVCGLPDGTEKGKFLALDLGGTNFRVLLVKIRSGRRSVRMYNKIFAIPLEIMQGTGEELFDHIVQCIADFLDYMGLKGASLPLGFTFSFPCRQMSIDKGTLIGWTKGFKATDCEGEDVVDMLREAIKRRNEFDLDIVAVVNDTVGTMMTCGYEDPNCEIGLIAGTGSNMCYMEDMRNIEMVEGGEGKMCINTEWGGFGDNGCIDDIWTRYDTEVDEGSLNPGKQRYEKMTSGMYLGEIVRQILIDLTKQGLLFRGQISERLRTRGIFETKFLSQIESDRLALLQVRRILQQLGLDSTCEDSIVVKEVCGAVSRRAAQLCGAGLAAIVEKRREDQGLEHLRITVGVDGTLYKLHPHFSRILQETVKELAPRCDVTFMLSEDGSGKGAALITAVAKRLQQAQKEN
# HeLa = test: HeLa cell cytotoxicity, dose response, cytotoxicity control, 24 h, cherry-picked samples (AID 504726); format: functional, cell-based; conditions: Homo sapiens;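 also: potency for cytotoxicity as loss of luminescence signal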
# T4 sequence (P11940 whole entry): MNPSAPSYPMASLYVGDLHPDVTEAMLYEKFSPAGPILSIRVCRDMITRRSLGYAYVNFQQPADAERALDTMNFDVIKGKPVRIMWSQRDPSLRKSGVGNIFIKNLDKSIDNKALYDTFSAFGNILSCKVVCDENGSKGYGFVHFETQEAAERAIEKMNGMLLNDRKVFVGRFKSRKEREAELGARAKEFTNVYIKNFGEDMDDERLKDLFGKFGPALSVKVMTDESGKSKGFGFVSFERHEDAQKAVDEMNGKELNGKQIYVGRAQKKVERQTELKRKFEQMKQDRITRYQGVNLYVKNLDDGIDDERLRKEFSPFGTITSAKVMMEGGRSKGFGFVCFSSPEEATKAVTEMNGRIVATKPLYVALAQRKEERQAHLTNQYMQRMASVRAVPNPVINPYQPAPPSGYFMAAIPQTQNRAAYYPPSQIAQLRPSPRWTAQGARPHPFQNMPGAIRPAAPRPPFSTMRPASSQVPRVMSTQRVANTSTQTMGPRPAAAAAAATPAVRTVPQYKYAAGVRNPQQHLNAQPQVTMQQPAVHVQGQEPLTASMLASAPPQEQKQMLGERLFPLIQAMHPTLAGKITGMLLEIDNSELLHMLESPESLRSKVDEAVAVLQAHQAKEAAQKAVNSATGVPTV
# Neurotensin receptor type 1, sequence (P30989 whole entry): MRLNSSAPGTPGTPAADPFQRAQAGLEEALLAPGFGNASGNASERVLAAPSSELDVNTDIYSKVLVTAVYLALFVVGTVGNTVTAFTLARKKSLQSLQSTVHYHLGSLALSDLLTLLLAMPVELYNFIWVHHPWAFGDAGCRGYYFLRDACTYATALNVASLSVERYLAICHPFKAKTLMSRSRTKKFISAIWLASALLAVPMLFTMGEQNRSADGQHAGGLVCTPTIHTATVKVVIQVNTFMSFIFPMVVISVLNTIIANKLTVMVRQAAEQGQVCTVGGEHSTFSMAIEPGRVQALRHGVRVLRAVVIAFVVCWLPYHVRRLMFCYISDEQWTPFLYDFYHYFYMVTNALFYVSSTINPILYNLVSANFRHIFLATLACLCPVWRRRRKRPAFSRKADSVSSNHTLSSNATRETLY
# Melanocortin receptor 4, sequence (P32245 whole entry): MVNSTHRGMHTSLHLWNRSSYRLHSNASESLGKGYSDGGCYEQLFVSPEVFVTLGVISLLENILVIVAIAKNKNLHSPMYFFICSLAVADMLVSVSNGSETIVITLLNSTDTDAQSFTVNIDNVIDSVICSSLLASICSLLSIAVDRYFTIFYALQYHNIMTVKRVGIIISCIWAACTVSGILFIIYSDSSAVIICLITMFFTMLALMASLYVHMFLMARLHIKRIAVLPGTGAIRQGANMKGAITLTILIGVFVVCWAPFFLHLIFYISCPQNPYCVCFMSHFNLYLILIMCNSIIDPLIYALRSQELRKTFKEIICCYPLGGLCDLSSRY
structure (smiles),measurement,setting,value
COc1cccc(N2CCN(Cc3ccsc3)CC2)c1,IC50,Bcl-2-like protein 10,> 100 µM (inactive)
Cc1cc(C(=O)NNC(=O)CCCCC(=O)NNC(=O)c2cc(C)n[nH]2)[nH]n1,EC50,[1],15.5 µM (active)
O=C(NNc1nc2ccccc2s1)C1CC1,EC50,[2],> 55.7 µM (not active)
same,EC50,[3],> 55.7 µM (not active)
Cc1ccc(NC(=O)CN2C(=O)N/C(=C/c3ccccc3OCc3cccc(C(=O)O)c3)C2=O)cc1,IC50,[4],> 100 µM (inactive)
same,IC50,[5],> 100 µM (inactive)
same,IC50,[6],11.1 µM (active)
same,IC50,[7],8.36 µM (active)
Nc1ccc(S(=O)(=O)NNC(=O)C(=O)NNc2ccccn2)cc1,EC50,[8],137 µM (active)
same,EC50,[1],26.5 µM (active)
CC1=NNC(=O)/C1=C\c1cn(-c2ccccc2)nc1-c1ccc(Cl)cc1,EC50,[9],3.63 µM (active)
same,EC50,[10],> 30 µM (inconclusive)
same,EC50,[11],5 µM (active)
same,EC50,[12],3.51 µM (active)
same,EC50,[13],6.61 µM (active)
same,EC50,[14],> 60 µM (not active)
same,EC50,Streptococcus,14.5 µM (active)
same,EC50,[15],16.8 µM (active)
same,EC50,Melanocortin receptor 4,> 89.2 µM (inactive)
same,EC50,Streptokinase A,4.83 µM (active)
same,EC50,[16],7.48 µM (active)
same,IC50,[17],> 80 µM (inactive)
same,CC50,[18],20.2 µM (active)
same,AC50,INS1,8.09 µM (active)
Cc1cccc(N2C(=O)NC(=O)/C(=C\c3ccc4c(c3)CCCN4Cc3ccccc3)C2=O)c1,IC50,Hexokinase HKDC1,27.6 µM (inactive)
NNc1nnc2c3cc(F)ccc3n(Cc3ccccc3)c2n1,AC50,HeLa,217 µM (active)
O=C(CCCC(=O)N/N=C/c1ccccc1C(=O)O)N/N=C/c1ccccc1C(=O)O,EC50,[2],> 55.7 µM (not active)
same,EC50,[3],> 55.7 µM (not active)
